pIC50: −log10 of the molar value.
How the values were obtained:
[1] = system: OPM2; assay: CellTiter-Glo cell proliferation; assay type: cell-based; conditions: 72 hours
Protocol: (§1) The effect of the present invention compound ZZY-003 on the cell proliferation of 50 cell lines was evaluated by CellTiter-Glo (CTG) method, and the 50% inhibitory concentration was calculated by detecting the cell viability after treatment with different drug concentrations. The cells were resuscitated and cultured in their respective culture media. The cells in logarithmic growth phase were harvested and the cells were counted by cell counter. The cell viability was detected by Trypan blue exclusion method to ensure that the cell line viability was more than 96%. The cell concentration was adjusted by diluting with the culture medium, and 90 μL cell suspension was added to the 96-well cell plate (including the cell control T0 on the day of drug treatment) to make the cell density reach the specified concentration. The cells in the 96-well plate were cultured overnight at 37° C., 5% CO2 and 95% humidity. 10 μL culture medium was added to the control cell culture plate. CellTiter-Glo reagent and cell culture plate were placed at room temperature to balance for 30 minutes. The same volume of CellTiter-Glo reagent was added to each well. Vibrate on the orbital shaker for 2 min to make the cells fully lytic. The cell culture plate was placed at room temperature to balance for 10 minutes. Chemiluminescence values were read with EnVision. The storage solution was formed by dissolving the tested compound with the corresponding solvent and diluted in gradient to obtain 10 times working concentration solution, and 10 times solution of positive drug was also prepared. 10 μL drug solution was added to each well in the 96-well plate in which the cells were inoculated, and each cell concentration was provided with three duplicate wells. The highest concentration of the tested compound was 10/50 μM, 9 concentrations and 3.16 times dilution. The cells in the 96-well plate added with drug were cultured at 37° C., 5% CO2 and 95% humidity for 72 hours. CellTiter-Glo reagent and drug-treated cell culture plate were placed at room temperature to balance for 30 minutes. The same volume of CellTiter-Glo reagent was added to each well. Vibrate on the orbital shaker for 2 minutes to make the cells fully lytic. The cell culture plate was placed at room temperature to balance for 10 minutes. Chemiluminescence values were read with EnVision. Data processing: […] Cell survival rate (%)=(Lum drug to be detected−Lum culture medium control)/(Lum cell control−Lum culture medium control)×100%; Lum cell control−Lum culture medium control was set to 100%, LumMedium control value was set to 0%;

[2] = system: HL-60; assay: CellTiter-Glo cell proliferation; assay type: cell-based; conditions: CTG, 72 hours
Protocol: as §1

[3] = system: MOLM-13; assay: CellTiter-Glo cell proliferation; assay type: cell-based; conditions: CTG, 72 hours
Protocol: as §1

[4] = system: MCF7; assay: CellTiter-Glo cell proliferation; assay type: cell-based; conditions: CTG, 72 hours
Protocol: as §1

[5] = system: LN-229; assay: CellTiter-Glo cell proliferation; assay type: cell-based; conditions: CTG, 72 hours
Protocol: as §1

[6] = system: JVM-3; assay: CellTiter-Glo cell proliferation; assay type: cell-based; conditions: CTG, 72 hours
Protocol: as §1

[7] = system: SNU-761; assay: CellTiter-Glo cell proliferation; assay type: cell-based; conditions: CTG, 72 hours
Protocol: as §1

[8] = system: Ramos; assay: CellTiter-Glo cell proliferation; assay type: cell-based; conditions: CTG, 72 hours
Protocol: as §1

[9] = system: U-937; assay: CellTiter-Glo cell proliferation; assay type: cell-based; conditions: CTG, 72 hours
Protocol: as §1

[10] = system: AN3 CA; assay: CellTiter-Glo cell proliferation; assay type: cell-based; conditions: CTG, 72 hours
Protocol: as §1

[11] = system: HuCCT1; assay: CellTiter-Glo cell proliferation; assay type: cell-based; conditions: 72 hours
Protocol: as §1

[12] = system: B16-F10; assay: CellTiter-Glo cell proliferation; assay type: cell-based; conditions: CTG, 72 hours
Protocol: as §1

[13] = system: MIA PaCa-2; assay: CellTiter-Glo cell proliferation; assay type: cell-based; conditions: CTG, 72 hours
Protocol: as §1

[14] = system: MDA-MB-453; assay: CellTiter-Glo cell proliferation; assay type: cell-based; conditions: CTG, 72 hours
Protocol: as §1

[15] = system: U266B1; assay: CellTiter-Glo cell proliferation; assay type: cell-based; conditions: CTG, 72 hours
Protocol: as §1

[16] = system: AMO-1; assay: CellTiter-Glo cell proliferation; assay type: cell-based; conditions: 72 hours
Protocol: as §1

[17] = system: HeLa; assay: CellTiter-Glo cell proliferation; assay type: cell-based; conditions: CTG, 72 hours
Protocol: as §1

[18] = system: NCI-H1299; assay: CellTiter-Glo cell proliferation; assay type: cell-based; conditions: CTG, 72 hours
Protocol: as §1

[19] = system: PANC-1; assay: CellTiter-Glo cell proliferation; assay type: cell-based; conditions: CTG, 72 hours
Protocol: as §1

[20] = system: HT-1376; assay: CellTiter-Glo cell proliferation; assay type: cell-based; conditions: CTG, 72 hours
Protocol: as §1

[21] = system: Hep G2; assay: CellTiter-Glo cell proliferation; assay type: cell-based; conditions: 72 hours
Protocol: as §1

[22] = target: T1, recombinant human LSD1 protein (Homo sapiens, UniProt O60341); assay: In vitro LSD1 inhibitory activity, LSD1-HRP coupling reaction (Amplex Red); assay type: biochemical; conditions: LSD1 enzyme activity in vitro; 30 min preincubation; H3K4Me2 peptide
T1 construct: made in house; host or cells: E. coli
Text: LSD1 activity was detected by using LSD1-HRP coupling reaction. […] During the reduction of H2O2 to H2O, Amplex Red acts as an electron donor and oxidizes to Resorufin for detection of fluorescence. […] Ampliflu™ Red, peroxidase, from horseradish required for the experiment was purchased from SIGMA; H3K4Me2 substrate peptide was purchased from GL Biochemical (Shanghai) Co., Ltd.

[23] = CTG, highest concentration 10/50 μM
[24] = Homo sapiens, read-out: Absolute IC50

Cc1ccc(C(=O)Nc2cc(N3CCNCC3)ccc2-c2ccc(/C=C/C(=O)NO)cc2C)cc1.Cl [ZZY-003] was tested, and the “% inhibition at top conc.” value [1, 23] was 98.99%, the pIC50 ([1]; Homo sapiens, OPM-2, CTG, read-out: Absolute IC50) was 6.46 and the “% inhibition at top conc.” value ([2]; highest concentration 10/50 μM) was 99.93%. For the same compound, the pIC50 [2, 24] was 6.51, the “% inhibition at top conc.” value ([3]; highest concentration 10/50 μM) was 99.99% and the pIC50 [3, 24] was 6.68. For the same compound, the “% inhibition at top conc.” value ([4]; highest concentration 10/50 μM) was 96.26%, the pIC50 [4, 24] was 5.79 and the “% inhibition at top conc.” value ([5]; highest concentration 10/50 μM) was 99.97%. For the same compound, the pIC50 [5, 24] was 5.80, the “% inhibition at top conc.” value ([6]; highest concentration 10/50 μM) was 99.48% and the pIC50 [6, 24] was 6.46. The “% inhibition at top conc.” value ([7]; highest concentration 10/50 μM) was 99.35%, the pIC50 ([7]; read-out: Absolute IC50) was 5.03 and the “% inhibition at top conc.” value ([8]; highest concentration 10/50 μM) was 99.82%. The pIC50 [8, 24] was 6.49, the “% inhibition at top conc.” value ([9]; highest concentration 10/50 μM) was 99.99% and the pIC50 [9, 24] was 6.34. For the same compound, the “% inhibition at top conc.” value ([10]; highest concentration 10/50 μM) was 99.92%, the pIC50 [10, 24] was 5.90 and the “% inhibition at top conc.” value [11, 23] was 99.88%. The pIC50 ([11]; Homo sapiens, HuCCT-1, CTG, read-out: Absolute IC50) was 5.87, the “% inhibition at top conc.” value ([12]; highest concentration 10/50 μM) was 99.98% and the pIC50 ([12]; Mus musculus, read-out: Absolute IC50) was 5.99. For the same compound, the “% inhibition at top conc.” value ([13]; highest concentration 10/50 μM) was 99.94%, the pIC50 [13, 24] was 6.32 and the “% inhibition at top conc.” value ([14]; highest concentration 10/50 μM) was 99.93%. The pIC50 [14, 24] was 6.72, the “% inhibition at top conc.” value ([15]; highest concentration 10/50 μM) was 98.03% and the pIC50 ([15]; read-out: Absolute IC50) was 6.19. The “% inhibition at top conc.” value [16, 23] was 99.95%, the pIC50 ([16]; Homo sapiens, AMO1, CTG, read-out: Absolute IC50) was 5.82 and the “% inhibition at top conc.” value ([17]; highest concentration 10/50 μM) was 98.88%. The pIC50 [17, 24] was 5.85, the “% inhibition at top conc.” value ([18]; highest concentration 10/50 μM) was 99.94% and the pIC50 [18, 24] was 5.47. The “% inhibition at top conc.” value ([19]; highest concentration 10/50 μM) was 96.79%, the pIC50 [19, 24] was 5.23 and the “% inhibition at top conc.” value ([20]; highest concentration 10/50 μM) was 99.41%. For the same compound, the pIC50 [20, 24] was 5.64, the “% inhibition at top conc.” value [21, 23] was 99.98% and the pIC50 ([21]; Homo sapiens, HepG2, CTG, read-out: Absolute IC50) was 6.08. For the same compound, the pIC50 [22] was 6.36.

Reference: patent US20200331882A1, “COMPOUND FOR SIMULTANEOUSLY INHIBITING LSD1 AND HDAC TARGETS AND APPLICATION THEREOF” (PEKING UNIVERSITY SHENZHEN GRADUATE SCHOOL, priority 2018, published 2020)
